Measured values from patent US20250084095A1, “Aminopyrimidine Derivatives as Cyclin-Dependent Kinase Inhibitors” (Accutar Biotechnology Inc., priority 2023, published 2025).

Assays:
CDK1-CYCLIN B = CDK1-CYCLIN B (Homo sapiens (Human), UniProt P06493); test: CDK protein kinase inhibition by the ADP-Glo Assay, CDK1-CYCLIN B; format: biochemical; conditions: 1000 μM ATP
Experimental: (§1) This ADP-Glo assay measures ADP formed from a kinase reaction and indirectly quantifies the phosphorylation of peptide substrates by the CDK/cyclin protein complexes. The typical assays were carried out in Nanosyn by combining kinase/cyclin complexes, substrates, compounds, and cofactors (ATP and Mg2+) in a well of a 384-well microtiter plate (Coming 3824) and incubating at 22° C. (Table 4). At the end of the incubation, the reaction is quenched, and conversion is detected by luminescence using the Promega ADP-Glo™ Kinase Assay kit (catalog #V9102). Briefly, 5 μL of 1× enzyme and substrate buffer (or control), 50 nL of 100× compound, and 0.5 μL of 10 mM ATP were sequentially added to a well of a 384-well plate.
(§2) The Final assay buffer mixture contains: 100 mM HEPES, pH 7.5, 0.1% BSA, 0.01% Triton X-100, 1 mM DTT, 5 mM MgCl2, 10 μM Sodium Orthovanadate, 10 μM Beta-Glycerophosphate, 1000 μM Ultra Pure ATP (provided in the Promega ADP-Glo™ Kinase Assay kit), and 1% DMSO (from compound).
(§3) Upon completion, 5 μL of the ADP Glo reagent was added to each well and the plate was further incubated at room temperature for 45 min. 10 μL of the Kinase Detection Reagent was subsequently added to each well. After 10 min of incubation, the plate was read and analyzed on the BioTek Synergy microplate reader using BioTek Gen5 software.

CDK9-CYCLIN T1 = CDK9-CYCLIN T1 (Homo sapiens (Human), UniProt P50750); test: CDK protein kinase inhibition by the ADP-Glo Assay, CDK9-CYCLIN T1; format: biochemical; conditions: 1000 μM ATP
Chain of CDK9-CYCLIN T1 (P50750 whole entry): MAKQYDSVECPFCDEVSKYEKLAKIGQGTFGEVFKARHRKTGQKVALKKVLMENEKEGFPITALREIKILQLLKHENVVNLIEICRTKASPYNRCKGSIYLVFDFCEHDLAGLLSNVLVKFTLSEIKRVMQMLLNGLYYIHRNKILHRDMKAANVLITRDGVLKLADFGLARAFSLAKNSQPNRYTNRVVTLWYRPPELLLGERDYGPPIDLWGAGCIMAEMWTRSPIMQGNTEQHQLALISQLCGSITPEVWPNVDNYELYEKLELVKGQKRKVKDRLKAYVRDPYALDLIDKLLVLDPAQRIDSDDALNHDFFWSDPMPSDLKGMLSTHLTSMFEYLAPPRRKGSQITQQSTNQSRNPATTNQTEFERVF
Chain of CDK9-CYCLIN T1 (O60563 whole entry partner): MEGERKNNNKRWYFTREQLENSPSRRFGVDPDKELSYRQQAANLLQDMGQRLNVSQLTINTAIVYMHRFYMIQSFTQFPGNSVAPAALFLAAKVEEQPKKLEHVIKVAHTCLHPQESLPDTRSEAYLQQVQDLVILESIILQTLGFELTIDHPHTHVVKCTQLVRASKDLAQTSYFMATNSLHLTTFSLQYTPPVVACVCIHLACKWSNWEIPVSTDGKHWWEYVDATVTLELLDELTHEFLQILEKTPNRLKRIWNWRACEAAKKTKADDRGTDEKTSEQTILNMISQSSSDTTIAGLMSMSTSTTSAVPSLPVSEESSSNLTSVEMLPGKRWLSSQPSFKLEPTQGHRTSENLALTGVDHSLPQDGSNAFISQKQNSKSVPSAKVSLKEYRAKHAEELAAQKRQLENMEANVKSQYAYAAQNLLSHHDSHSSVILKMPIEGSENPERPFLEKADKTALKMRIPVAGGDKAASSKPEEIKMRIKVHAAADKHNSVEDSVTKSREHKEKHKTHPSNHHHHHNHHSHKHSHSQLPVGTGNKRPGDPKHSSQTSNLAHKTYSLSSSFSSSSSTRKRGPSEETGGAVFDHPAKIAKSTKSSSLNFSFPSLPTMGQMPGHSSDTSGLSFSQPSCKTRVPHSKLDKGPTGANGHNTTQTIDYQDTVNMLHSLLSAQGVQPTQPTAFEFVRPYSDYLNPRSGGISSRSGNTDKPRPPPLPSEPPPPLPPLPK
Experimental: as §1, §2, §3

in vitro = conditions: both, human, hepatocytes
Experimental: (§4) Human hepatocyte stability assay was performed at Pharmaron. Human hepatocytes from mixed genders were purchased from BioIVT (Product #X008001). Compounds and positive control were incubated with human hepatocytes. Verapmil was used as a positive control. […] An aliquot of 100 μL of the supernatant was diluted by 100 μL ultra-pure water, and the mixture was used for LC/MS/MS analysis. The percent of parent remaining, intrinsic clearance (CLint) and tr2 were calculated.

[1] = tested on: Phospho-Rb (Ser807/811) in SW1573-CDK6 KO cells; test: Phospho-Rb expression inhibition in SW1573-CDK6 KO cells quantified by in cell Western; format: cell-based; conditions: Homo sapiens, 24 hours, read-out: SW1573 CDK6 KO pRb IC50
Summary of the method: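 CRISPR CDK4- or CDK6-knockout SW1573 clones were seeded at 20,000 cells/well overnight, then exposed to compound (0.1% DMSO from 1000× stocks) for 24 h at 37° C in 10% FBS medium. Fixed, methanol-permeabilized cells were co-stained for phospho-Rb Ser807/811 and total Rb, with near-infrared in-cell Western read-out.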

CDK4-CYCLIN D1 = CDK4-CYCLIN D1 (Homo sapiens (Human), UniProt P11802); test: CDK protein kinase inhibition by the ADP-Glo Assay, CDK4-CYCLIN D1; format: biochemical; conditions: for IC50: ADP-Glo, 1000 μM ATP; for Selectivity CDK4 vs CDK1 / Selectivity CDK4 vs CDK2 / Selectivity CDK4 vs CDK6 / Selectivity CDK4 vs CDK9: ratio of recombinant kinase IC50s; for Selectivity CDK4 vs CDK1: CDK1 over CDK4; for Selectivity CDK4 vs CDK2: CDK2 over CDK4; for Selectivity CDK4 vs CDK6: CDK6 over CDK4; for Selectivity CDK4 vs CDK9: CDK9 over CDK4
Chain of CDK4-CYCLIN D1 (P11802 whole entry): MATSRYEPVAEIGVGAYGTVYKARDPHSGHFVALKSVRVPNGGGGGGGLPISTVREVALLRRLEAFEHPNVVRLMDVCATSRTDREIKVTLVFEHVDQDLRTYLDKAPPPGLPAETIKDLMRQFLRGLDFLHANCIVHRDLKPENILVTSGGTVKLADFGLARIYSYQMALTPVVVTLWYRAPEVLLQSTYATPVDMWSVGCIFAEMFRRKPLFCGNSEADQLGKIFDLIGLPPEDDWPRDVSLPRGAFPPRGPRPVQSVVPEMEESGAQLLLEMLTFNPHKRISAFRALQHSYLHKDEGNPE
Chain of CDK4-CYCLIN D1 (P24385 whole entry partner): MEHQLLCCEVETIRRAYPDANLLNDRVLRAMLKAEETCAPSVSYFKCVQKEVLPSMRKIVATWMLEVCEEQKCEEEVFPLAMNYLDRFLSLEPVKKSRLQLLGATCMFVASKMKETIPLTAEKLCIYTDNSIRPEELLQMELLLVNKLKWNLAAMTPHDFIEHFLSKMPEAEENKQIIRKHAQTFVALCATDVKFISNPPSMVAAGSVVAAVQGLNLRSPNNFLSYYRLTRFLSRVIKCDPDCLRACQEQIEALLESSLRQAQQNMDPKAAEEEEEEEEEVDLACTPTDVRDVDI
Experimental: as §1, §2, §3

CDK6-CYCLIN D3 = CDK6-CYCLIN D3 (Homo sapiens (Human), UniProt Q00534); test: CDK protein kinase inhibition by the ADP-Glo Assay, CDK6-CYCLIN D3; format: biochemical; conditions: 1000 μM ATP
Chain of CDK6-CYCLIN D3 (Q00534 whole entry): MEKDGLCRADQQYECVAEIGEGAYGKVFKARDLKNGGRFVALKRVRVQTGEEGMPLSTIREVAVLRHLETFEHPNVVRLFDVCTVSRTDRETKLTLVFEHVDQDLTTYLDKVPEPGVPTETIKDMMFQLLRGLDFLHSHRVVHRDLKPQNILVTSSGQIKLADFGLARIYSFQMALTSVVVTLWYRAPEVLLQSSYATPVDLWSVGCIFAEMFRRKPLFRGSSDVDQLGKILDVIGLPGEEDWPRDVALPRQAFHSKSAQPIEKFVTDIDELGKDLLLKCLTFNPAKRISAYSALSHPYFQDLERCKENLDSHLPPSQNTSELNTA
Chain of CDK6-CYCLIN D3 (P30281 whole entry partner): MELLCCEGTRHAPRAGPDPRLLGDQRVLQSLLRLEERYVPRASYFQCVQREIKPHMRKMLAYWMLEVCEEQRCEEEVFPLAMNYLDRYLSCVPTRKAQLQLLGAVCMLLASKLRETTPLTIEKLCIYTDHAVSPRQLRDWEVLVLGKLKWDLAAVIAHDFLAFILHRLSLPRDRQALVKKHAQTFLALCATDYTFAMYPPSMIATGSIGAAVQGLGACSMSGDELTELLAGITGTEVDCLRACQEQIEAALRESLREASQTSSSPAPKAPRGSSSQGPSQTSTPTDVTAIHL
Experimental: as §1, §2, §3

CDK2-CYCLIN E1 = CDK2-CYCLIN E1 (Homo sapiens (Human), UniProt P24941); test: CDK protein kinase inhibition by the ADP-Glo Assay, CDK2-CYCLIN E1; format: biochemical; conditions: 1000 μM ATP, read-out: CDK2-CYCLIN E, IC50
Experimental: as §1, §2, §3

[2] = Human hepatocyte stability assay; conditions: human hepatocytes, 1 μM, 120 min incubation
Experimental: as §4

Chain of CDK1-CYCLIN B (P06493 whole entry): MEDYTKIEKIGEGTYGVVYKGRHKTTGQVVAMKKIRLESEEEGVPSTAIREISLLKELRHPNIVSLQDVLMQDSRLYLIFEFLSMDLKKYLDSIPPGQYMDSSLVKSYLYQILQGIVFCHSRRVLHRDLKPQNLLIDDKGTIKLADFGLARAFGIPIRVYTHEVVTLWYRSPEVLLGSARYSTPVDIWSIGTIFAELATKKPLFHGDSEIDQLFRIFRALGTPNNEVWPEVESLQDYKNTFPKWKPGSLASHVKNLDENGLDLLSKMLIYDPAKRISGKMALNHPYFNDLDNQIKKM
Chain of CDK1-CYCLIN B (P14635 whole entry partner): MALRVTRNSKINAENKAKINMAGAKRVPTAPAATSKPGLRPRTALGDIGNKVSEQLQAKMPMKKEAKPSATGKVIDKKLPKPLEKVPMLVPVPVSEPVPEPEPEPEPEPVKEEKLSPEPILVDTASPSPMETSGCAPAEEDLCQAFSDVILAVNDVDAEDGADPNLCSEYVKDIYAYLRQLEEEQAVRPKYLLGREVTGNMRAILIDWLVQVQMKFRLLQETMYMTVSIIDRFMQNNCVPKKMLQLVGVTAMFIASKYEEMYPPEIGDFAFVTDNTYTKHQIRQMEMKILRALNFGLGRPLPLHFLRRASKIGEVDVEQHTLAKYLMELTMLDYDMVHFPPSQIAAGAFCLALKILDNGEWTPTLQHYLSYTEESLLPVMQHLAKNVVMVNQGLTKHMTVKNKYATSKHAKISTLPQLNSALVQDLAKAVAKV

`CC(C)n1c(C(C)(C)O)nc2c(F)cc(-c3nc(N[C@@H]4C[C@H]5CO[C@H](O5)[C@H]4O)ncc3Cl)cc21` [Compound 1, (1S,3R,4S,5R)-3-((5-chloro-4-(4-fluoro-2-(2-hydroxypropan-2-yl)-1-isopropyl-1H-benzo[d]imidazol-6-yl)pyrimidin-2-yl)amino)-6,8-dioxabicyclo[3.2.1]octan-4-ol] gave an IC50 (CDK1-CYCLIN B) of 26200 nM, an IC50 (CDK9-CYCLIN T1) of 4880 nM and a CLint scaled at 1 μM (in vitro) of 6.4 mL/min/kg. For the same compound, the half-life at 1 μM (in vitro) was 9.26 h, the IC50 [1] was no more than 40 nM and the “Hepatic Extraction Ratio (ER)” value (both, human, 1 μM) was 0.23. For the same compound, the “Predicted Hepatic CLH” value (both, human, 1 μM) was 4.9 mL/min/kg, the “In vitro CLint (μL/min/10^6 cell)” value (human, hepatocytes) was 2.5 μL/min/10^6 cell and the IC50 (CDK4-CYCLIN D1) was 3.15 nM. The “Selectivity CDK4 vs CDK1” value (CDK4-CYCLIN D1) was 8,317, the “Selectivity CDK4 vs CDK2” value (CDK4-CYCLIN D1) was >9,524 and the “Selectivity CDK4 vs CDK6” value (CDK4-CYCLIN D1) was 20. The “Selectivity CDK4 vs CDK9” value (CDK4-CYCLIN D1) was 1,549, the “Selectivity for CDK4 over CDK1, CDK2, CDK6 and CDK9 compared with the reference compound” value (CDK4-CYCLIN D1; versus PF-07220060) was “much better selectivity” and the IC50 (CDK6-CYCLIN D3) was 63.8 nM. It also gave an IC50 (CDK2-CYCLIN E1) greater than 30000 nM.
With `CC(C)n1c(C(C)(C)O)nc2c(F)cc(-c3nc(N[C@@H]4CCOC[C@H]4O)ncc3Cl)cc21` [Reference Compound, PF-07220060, reference compound] the IC50 (CDK1-CYCLIN B) was 8590 nM, the IC50 (CDK9-CYCLIN T1) was 1880 nM and the “t1/2” value [2] was 2.057 h. The “Scaled-up CLint” value (hepatocytes) was 28.6 mL/min/kg, the “In vitro CLint (μL/min/10^6 cell)” value (human, hepatocytes) was 11.3 μL/min/10^6 cell and the IC50 (CDK4-CYCLIN D1) was 4.37 nM. For the same compound, the “Selectivity CDK4 vs CDK1” value (CDK4-CYCLIN D1) was 1,966, the “Selectivity CDK4 vs CDK2” value (CDK4-CYCLIN D1) was >6,865 and the “Selectivity CDK4 vs CDK6” value (CDK4-CYCLIN D1) was 18. The “Selectivity CDK4 vs CDK9” value (CDK4-CYCLIN D1) was 430, the IC50 (CDK6-CYCLIN D3) was 76.5 nM and the IC50 (CDK2-CYCLIN E1) was greater than 30000 nM.
